The record followed here is US10266535B2, “Inhibitor of FLT3 kinase and use thereof” (HEFEI INSTITUTES OF PHYSICAL SCIENCE, CHINESE ACADEMY OF …, priority 2015, dated 2019).

The test system of assay [1] is TEL-BaF3-FLT3/ITD (stably expressing FLT3/ITD mutant activated kinase). As to the kind of experiment: Cell proliferation, Cell Titer-Glo, TEL-BaF3-FLT3/ITD. Type of assay: cell-based, mouse. As to the method:
(§1) The above cell lines were constructed by our laboratory.
(§2) The number of viable cells was determined by quantification of ATP in living cells using the Cell Titer-Glo® (Promega, USA) chemiluminescence cell viability assay kit.

In assay [2] the test system is pro-B cell BaF3. As to the kind of experiment: Cell proliferation, Cell Titer-Glo, BaF3. Type of assay: cell-based. To be noted: Mus musculus, incubated for 72 hours. As to the method:
as §1, §2

Assay [3] has as its system MV4-11 (expressing FLT3/ITD mutant gene). Kind of assay: Cell proliferation, Cell Titer-Glo, MV4-11. Format: cell-based. To be noted: Homo sapiens. As to the method:
as §1, §2

Assay [4] relates to OCI-AML-3 (expressing FLT3 A680V mutant gene). As to the kind of experiment: Cell proliferation, Cell Titer-Glo, OCI-AML3. Type of assay: cell-based. The following applies: Homo sapiens, incubated for 72 hours. As to the method: as §1, §2
Assay [5] concerns U937 (expressing wild-type FLT3 gene). Kind of assay: Cell proliferation, Cell Titer-Glo, U937. Type of assay: cell-based, human. The following applies: Homo sapiens, U-937, 72 h, incubated for 72 hours; read-out: U937 IC50. As to the method: as §1, §2
Assay [6] relates to MOLM-13 (expressing FLT3/ITD mutant gene and wild-type FLT3 gene). Kind of assay: Cell proliferation, Cell Titer-Glo, MOLM-13. Type of assay: cell-based. To be noted: Homo sapiens, MOLM-13; incubated for 72 hours; read-out: MOLM-13 IC50. As to the method: as §1, §2
Assay [7] relates to TEL-cKIT-BaF3 (stably expressing cKIT kinase). Kind of assay: Cell proliferation, Cell Titer-Glo, TEL-cKIT-BaF3. Format: cell-based. To be noted: Mus musculus; incubated for 72 hours. As to the method:
as §1, §2

Assay [8] deals with TEL-BaF3-BLK (stably expressing BLK kinase). As to the kind of experiment: Cell proliferation, Cell Titer-Glo, TEL-BaF3-BLK. Format: cell-based. The following applies: Mus musculus; incubated for 72 hours. As to the method:
as §1, §2

Assay [9] has as its system TEL-BaF3-BMX (stably expressing BMX kinase). As to the kind of experiment: Cell proliferation, Cell Titer-Glo, TEL-BaF3-BMX. Format: cell-based. To be noted: Mus musculus; incubated for 72 hours. The protocol: as §1, §2
[10] abbreviates: Mus musculus, 72 h, incubated for 72 hours, read-out: TEL-BaF3-FLT3/ITD IC50.
Where [11] appears, read: MV4-11, incubated for 72 hours, read-out: MV4-11 IC50.

Structures can show the parent of a compound that is named as a salt. Where two headings read alike, the source gives them in different places. Where only a bound is given, the exact number is not on record here.

In the case of `CC(C)C[C@@H](N)C(=O)N[C@H]1CC[C@H](n2nc(-c3ccc(Oc4ccccc4)cc3)c3c(N)ncnc32)CC1` (stereo in doubt) [Compound 85, (R)-2-amino-N-(4-(4-amino-3-(4-phenoxyphenyl)-1H-pyrazolo[3,4-d]pyrimidin-1-yl)trans-1,4-cyclohexyl)-4-methylpentanamide hydrochloride], the IC50 came out at 0.082 µM in [1] (Mus musculus, 72 h, read-out: TEL-BaF3-FLT3/ITD IC50 [μM], incubated for 72 hours); 950 nM in [2]; 0.51 µM in assay [3] (MV4-11, 72 h, read-out: MV4-11 IC50 [μM]).
Regarding `Nc1ncnc2c1c(-c1ccc(Oc3ccccc3)cc1)nn2[C@@H]1CCCN(C(=O)C2CC2)C1` [Compound 1, (R)-(3-(4-amino-(4-phenoxyphenyl)-1H-pyrazolo[3,4-d]pyrimidin-1-yl)piperidin-1-yl)(cyclopropyl)methanone], the IC50 in assay [1] (setting [10]) was 1.4 µM; in [4] it was over 10000 nM; in assay [5], over 10000 nM; in assay [3] (setting [11]), 6.5 µM.
On to `Nc1ncnc2c1c(-c1ccc(Oc3ccccc3)cc1)nn2[C@@H]1CCCN(S(=O)(=O)C(F)(F)F)C1` [Compound 3, (R)-3-(4-phenoxyphenyl)-1-(1-((trifluoromethyl)sulfonyl)piperidin-3-yl)-1H-pyrazolo[3,4-d]pyrimidin-4-amine], for which the figures for the IC50 in assay [1] (setting [10]) and in [5] were 1.8 µM and over 10000 nM, respectively.
The corresponding values for `Nc1ncnc2c1c(-c1ccc(Oc3ccccc3)cc1)nn2[C@@H]1CCCN(C(=O)c2cccnc2)C1` [Compound 13, (R)-(3-(4-amino-(4-phenoxyphenyl)-1H-pyrazolo[3,4-d]pyrimidin-1-yl)piperidin-1-yl)(pyridin-3-yl)methanone] are 0.45 µM and over 10000 nM.
For the compound `Nc1ncnc2c1c(-c1ccc(Oc3ccccc3)cc1)nn2[C@@H]1CCCN(C(=O)c2cncnc2)C1` [Compound 15, (R)-(3-(4-amino-(4-phenoxyphenyl)-1H-pyrazolo[3,4-d]pyrimidin-1-yl)piperidin-1-yl)(pyrimidin-5-yl)methanone], the IC50 in assay [1] (setting [10]) was 0.2 µM; in assay [5], over 10000 nM.
With `COC(=O)c1ccc(C(=O)N2CCC[C@@H](n3nc(-c4ccc(Oc5ccccc5)cc4)c4c(N)ncnc43)C2)cc1` [Compound 16, (R)-methyl 4-(3-(4-amino-(4-phenoxyphenyl)-1H-pyrazolo[3,4-d]pyrimidin-1-yl)piperidine-1-carbonyl)benzoate], the results for the IC50 in assay [1] (setting [10]) and in assay [5] were 6 µM and over 10000 nM, respectively.
The corresponding values for `Nc1ccc(C(=O)N2CCC[C@@H](n3nc(-c4ccc(Oc5ccccc5)cc4)c4c(N)ncnc43)C2)cn1` [Compound 17, (R)-(3-(4-amino-(4-phenoxyphenyl)-1H-pyrazolo[3,4-d]pyrimidin-1-yl)piperidin-1-yl)(6-aminopyridin-3-yl)methanone] are 0.88 µM and over 10000 nM.
The corresponding values for `Nc1ncnc2c1c(-c1ccc(Oc3ccccc3)cc1)nn2[C@@H]1CCCN(C(=O)c2ccc3c(c2)OCO3)C1` [Compound 18, (R)-(3-(4-amino-(4-phenoxyphenyl)-1H-pyrazolo[3,4-d]pyrimidin-1-yl)piperidin-1-yl)-(3,4-methylenedioxyphenyl)mathanone] are 1.8 µM and over 10000 nM.
The corresponding values for `Nc1ncnc2c1c(-c1ccc(Oc3ccccc3)cc1)nn2[C@@H]1CCCN(C(=O)C2CCNCC2)C1` [Compound 19, (R)-(3-(4-amino-(4-phenoxyphenyl)-1H-pyrazolo[3,4-d]pyrimidin-1-yl)piperidin-1-yl)-4-piperidinmethanone] are 0.79 µM and over 10000 nM.
Consider `Nc1ncc(C(=O)N2CCC[C@@H](n3nc(-c4ccc(Oc5ccccc5)cc4)c4c(N)ncnc43)C2)cn1` [Compound 21, (R)-(3-(4-amino-(4-phenoxyphenyl)-1H-pyrazolo[3,4-d]pyrimidin-1-yl)piperidin-1-yl)(2-aminopyrimidin-5-yl)methanone], for which the IC50 in assay [1] (setting [10]) is 0.33 µM; in assay [5] it was over 10000 nM.
On to `C[C@@H](N)C(=O)N1CCC[C@@H](n2nc(-c3ccc(Oc4ccccc4)cc3)c3c(N)ncnc32)C1` [Compound 24, (R)-2-amino-1-((R)-3-(4-amino-(4-phenoxyphenyl)-1H-pyrazolo[3,4-d]pyrimidin-1-yl)piperidin-1-yl)propan-1-one], for which the IC50 in assay [1] (incubated for 72 hours, read-out: TEL-BaF3-FLT3/ITD IC50) stood at 0.67 µM; in assay [5] it was 7800 nM.
Consider `CC(=O)N1CCC[C@@H](n2nc(-c3ccc(Oc4ccccc4)cc3)c3c(N)ncnc32)C1` [Compound 34], for which the IC50 was 0.07 µM in assay [1] (setting [10]), 3560 nM in assay [4], over 10000 nM in assay [5] and 0.35 µM in assay [3] (setting [11]).
On to `NC(=O)CC[C@H](N)C(=O)N1CCC[C@@H](n2nc(-c3ccc(Oc4ccccc4)cc3)c3c(N)ncnc32)C1` [Compound 56], for which the IC50 in assay [1] (setting [10]) is 0.49 µM; in assay [2] it was over 10000 nM; in [6], 710 nM; in assay [3] (setting [11]) it was 0.24 µM.
As to `CN1CCN(CCC(=O)N2CCC[C@@H](n3nc(-c4ccc(Oc5ccccc5)cc4)c4c(N)ncnc43)C2)CC1` [Compound 58], the IC50 in [7] was 7400 nM; in assay [1] (setting [10]), 0.094 µM; in assay [2], 3720 nM; in assay [6] it was 190 nM; in [3] (setting [11]) it was 0.058 µM; in [8] it was 150 nM. The compound also yielded an IC50 in [9] of 270 nM.
For `CC(C)(C)OC(=O)NCC(=O)N1CCC[C@@H](n2nc(-c3ccc(Oc4ccccc4)cc3)c3c(N)ncnc32)C1` [Compound 59, (R)-tert-butyl 2-(3-(4-amino-3-(4-phenoxyphenyl)-1H-pyrazolo[3,4-d]pyrimidin-1-yl)piperidin-1-yl)-2-oxoethylcarbamate], the IC50 in assay [1] (setting [10]) turned out to be 0.18 µM; in assay [2], 9290 nM; in assay [6] it was 775 nM; in assay [3] (setting [11]) it was 0.429 µM.
The corresponding values for `CC(C)C[C@@H](O)C(=O)N1CCC[C@@H](n2nc(-c3ccc(Oc4ccccc4)cc3)c3c(N)ncnc32)C1` [Compound 61, (R)-1-((R)-3-(4-amino-(4-phenoxyphenyl)-1H-pyrazolo[3,4-d]pyrimidin-1-yl)piperidin-1-yl)-2-hydroxyl-4-methylpentan-1-one] are 0.48 µM, 7210 nM, 2120 nM and 0.948 µM.
The corresponding values for `NCCCCC(=O)N1CCC[C@@H](n2nc(-c3ccc(Oc4ccccc4)cc3)c3c(N)ncnc32)C1` [Compound 62] are 0.41 µM, 8460 nM, 1200 nM and 0.38 µM.
For `CCCCC(O)C(=O)N1CCC[C@@H](n2nc(-c3ccc(Oc4ccccc4)cc3)c3c(N)ncnc32)C1` (stereo partly shown) [Compound 63], the IC50 was 0.15 µM in assay [1] (setting [10]), 4690 nM in assay [2], 720 nM in [6] and 0.35 µM in assay [3] (setting [11]).
The corresponding values for `CC(C)(C)OC(=O)NCC(=O)N1CC[C@@H](n2nc(-c3ccc(Oc4ccccc4)cc3)c3c(N)ncnc32)C1` [Compound 66, (R)-tert-butyl 2-(3-(4-amino-(4-phenoxyphenyl)-1H-pyrazolo[3,4-d]pyrimidin-1-yl)pyrrolidin-1-yl)-2-oxoethylcarbamate] are 0.16 µM, 6340 nM, 1600 nM and 0.73 µM.
The corresponding values for `CS(=O)(=O)N1CC[C@@H](n2nc(-c3ccc(Oc4ccccc4)cc3)c3c(N)ncnc32)C1` [Compound 67, (R)-1-(1-(methylsulfonyl)pyrrolidin-3-yl)-3-(4-phenoxyphenyl)-1H-pyrazolo[3,4-d]pyrimidin-4-amine] are 0.13 µM, over 10000 nM, 1460 nM and 0.42 µM.
Consider `CN(C)CC(=O)N1CCC(n2nc(-c3ccc(Oc4ccccc4)cc3)c3c(N)ncnc32)CC1` [Compound 72, 1-(4-(4-amino-(4-phenoxyphenyl)-1H-pyrazolo[3,4-d]pyrimidin-1-yl)piperidin-1-yl)-2-(dimethylamino)ethanone], for which the IC50 in [1] (setting [10]) worked out at 0.075 µM; in assay [2], 3650 nM.
The corresponding values for `CS(=O)(=O)N1CCC(n2nc(-c3ccc(Oc4ccccc4)cc3)c3c(N)ncnc32)CC1` [Compound 73, 1-(1-(methylsulfonyl)piperidin-4-yl)-3-(4-phenoxyphenyl)-1H-pyrazolo[3,4-d]pyrimidin-4-amine] are 0.19 µM and over 10000 nM.
The corresponding values for `CC(C)C[C@@H](N)C(=O)N1CCC(n2nc(-c3ccc(Oc4ccccc4)cc3)c3c(N)ncnc32)CC1` [Compound 74, (R)-2-amino-1-(4-(4-amino-(4-phenoxyphenyl)-1H-pyrazolo[3,4-d]pyrimidin-1-yl)piperidin-1-yl)-4-methylpentan-1-one] are 0.075 µM and 590 nM.
